Test system: PBMC
Test: GSH/GSSG ratio by LC-MS/MS in treated PBMC samples
Format: cell-based, human
Details: 4 PBMC samples, 12 hours
Protocol: The levels of glutathione (GSH, reduced form) and glutathione disulfide (GSSG, oxidized form) in the whole blood of each subject were determined using a liquid chromatography-tandem mass spectrometry (LC-MS/MS)-based procedure modified from that of Norris et al. (J Chromatogr B Biomed Sci Appl. 2001; 762 (I):17-23) In brief, whole blood was mixed in a 1:4 (v:v) ratio with solution containing n-ethylmaleimide (NEM), sulfosalicylic acid, EDTA and methanol. Supernatants were diluted with stable-isotope internal standards (GSH-^13C, ^15N-NEM and GSSG-^13C, ^15N) and analyzed by LC-MS/MS, using an API 3000 Tandem Mass Spectrometer with Turbulon Ion Spray source, Shimadzu solvent delivery system and LEAP Technology autosampler. GSH (as GSH-NEM) and GSSG were monitored by transitions m/z 433→304 and m/z […] respectively, and data was acquired using Analyst 1.4.
Significance analysis of microarrays (SAM) was conducted for analysis of microarray data to identify differentially expressed genes. The Mann-Whitney test was used in the analysis of real-time PCR validation data. Unpaired t-test was conducted for the comparison of glutathione levels in ITP patients and controls. Paired t-test was carried out for the analysis of differences in GSH/GSSG ratios in cells with or without LPS or sodium arsenite treatments. […]

Compound	GSH/GSSG ratio compared with untreated cells (sodium arsenite 5 μM, p=0.01)	GSH/GSSG ratio compared with untreated cells (LPS 10 ng/ml, p=0.04)
O=[As]O [sodium arsenite]	statistically significant decrease	
Lipopolysaccharide [LPS]		statistically significant decrease
